Experimental data: US20110191897A1, “Plants Tolerant to HPPD Inhibitor Herbicides” (Bayer CropScience AG, priority 2009, published 2011)

How the values were obtained:
[1] = biological target: T1, Arabidopsis thaliana HPPD (SEQ ID No. 10) (Arabidopsis thaliana, UniProt P93836); experiment: Spectrophotometric HPPD activity assay in presence of HPPD inhibitors; assay type: biochemical
T1 construct: made in house; host or cells: E. coli K-12 BL21 (pQE30-AtHPPD)
T1 sequence (P93836 with tags, fused parts or gaps): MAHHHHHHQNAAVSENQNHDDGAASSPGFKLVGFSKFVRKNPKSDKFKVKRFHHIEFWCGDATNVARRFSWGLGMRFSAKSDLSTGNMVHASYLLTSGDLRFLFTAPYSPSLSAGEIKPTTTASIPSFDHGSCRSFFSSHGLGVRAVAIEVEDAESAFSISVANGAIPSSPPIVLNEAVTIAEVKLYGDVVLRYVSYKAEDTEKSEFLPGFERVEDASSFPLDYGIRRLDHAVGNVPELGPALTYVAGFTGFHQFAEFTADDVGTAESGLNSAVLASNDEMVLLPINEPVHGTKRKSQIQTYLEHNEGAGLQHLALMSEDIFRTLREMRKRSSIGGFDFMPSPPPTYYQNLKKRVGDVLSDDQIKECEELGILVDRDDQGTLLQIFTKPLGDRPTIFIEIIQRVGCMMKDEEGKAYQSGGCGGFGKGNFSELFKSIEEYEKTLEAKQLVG

[2] = test system: T0 tobacco plants expressing the FMP37 HPPD (FMP37t); experiment: Greenhouse response of T0 tobacco plants to tembotrione; assay type: in vivo, Nicotiana tabacum; details: 100 g AI/ha, two weeks after treatment
Excerpt: As an example, rooted plants containing the T-DNA PromCaMV35S-OTP-HIS6—FMP37t-TerCaMV35S, will be transferred to the greenhouse under standard growth conditions. Following a period of acclimation of two weeks, the T0 plants will be treated with a mixture containing 100 g tembotrione/ha prepared from a WP20 (wettable powder 20%) formulation supplemented with ammonium sulfate and methyl ester raps oil. Two weeks after the treatment, the symptoms due to the application of the herbicides will be evaluated. The plants are classified in four categories. The treated plants evaluated as “0” are looking like the untreated tobacco plants. The plants evaluated as “1” display temporary light bleaching phenotype due to the application of the herbicides. The plants evaluated as “2” display permanent light to strong bleaching symptoms. Finally the plants evaluated as “3” are looking like wild type tobacco plants submitted to the same treatment.

[3] = test system: tobacco calli containing HPPD SEQ ID No. 7 (Blepharisma japonicum); experiment: Rooting of transformed tobacco calli on tembotrione media; assay type: cell-based, Nicotiana tabacum; details: 6 to 12 weeks
Protocol: The leaf disks were co-cultivated for 2 days with Agrobacterium tumefaciens cells containing either the binary vector FMP37ebv or AtHPPDbv. Then the leaf disks were transferred to a media allowing the regeneration of shoots for 6 weeks on MS (Musharige and Skoog, (1962), Physiol Plant 15(3): 473-497) media supplemented with BAP (1 mg/mL; Benzylaminopurine), carbenicillin (250 mg/mL), cefotaxine (250 mg/mL), kanamycin (75 mg/mL) and tembotrione (10^−6 M)
Regenerated calli were transferred on media to induce the development of roots for 6 to 12 weeks: MS (½), supplemented with carbenicillin (250 mg/mL), cefotaxine (250 mg/mL), kanamycin (75 mg/mL), and tembotrione (10^−6 M).
Regenerated shoot calli from a cell transformed with a nucleic acid sequence encoding an HPPD comprising SEQ ID No. 11 (Arabidopsis thaliana) or SEQ ID No. 7 (Blepharisma japonicum) were transferred to a media inducing rot growth which media was further supplemented with the HPPD inhibitor tembotrione for 6 to 12 weeks.

## CS(=O)(=O)c1ccc(C(=O)C2C(=O)CCCC2=O)c(Cl)c1COCC(F)(F)F [Tembotrione, 2-[2-chloro-4-(methylsulfonyl)-3-[(2,2,2,-tri-fluoroethoxy)methyl]benzoyl]-1,3-cyclo-hexanedione]
[1]
  IC50: < 2510 nM
[1]; 1.0E−05 M
  % Inhibition: 97%
[1]; 2.5E−04 M
  % Inhibition: 97%
[1]; 2.5E−05 M
  % Inhibition: 93%
[1]; 2.5E−06 M
  % Inhibition: 82%
[1]; 5.0E−06 M
  % Inhibition: 90%
[1]; 5.0 × 10^−6M inhibitor (Table 4), read-out: percentage of inhibition
  inhibition at 5 µM: 92%
[1]; 6.3E−05 M
  % Inhibition: 97%
[2]
  number of plants in category 0 (looking like the untreated tobacco plants): 6
  number of plants in category 2 (permanent light to strong bleaching): 13
  number of plants in category 3 (like treated wild type tobacco plants): 7
[3]
  % Elongation & rooting on 10^−6M tembotrione: 65%
